Measured values reported in ChEMBL document CHEMBL2424607, “Synthesis, characterization, and computational studies on phthalic anhydride-based benzylidene-hydrazide derivatives as novel, potential anti-inflammatory agents” (2013).

Experiments:
Assay type in all cases: functional
[1] = species: Mus musculus; assay: Analgesic activity in Swiss albino mouse assessed as duration of thermal-stimulus induced tail flick latency after 30 mins by tail immersion method (reference value: 2.13 +/- 0.03 seconds)
[2] = species: Mus musculus; assay: Analgesic activity in Swiss albino mouse assessed as duration of thermal-stimulus induced tail flick latency after 60 mins by tail immersion method (reference value: 3.01 +/- 0.04 seconds)
[3] = system: Rattus norvegicus; assay: Antiinflammatory activity against carrageenan-induced paw edema rat model assessed as inhibition of hind paw swelling administered 1 hr before carrageenan challenge measured after 1 hr by plethysmometer relative to control
[4] = species: Mus musculus; assay: Analgesic activity in Swiss albino mouse assessed as duration of thermal-stimulus induced tail flick latency after 90 mins by tail immersion method (reference value: 3.87 +/- 0.10 seconds)
[5] = system: Rattus norvegicus; assay: Antiinflammatory activity against carrageenan-induced paw edema rat model assessed as inhibition of hind paw swelling administered 1 hr before carrageenan challenge measured after 3 hrs by plethysmometer relative to control
[6] = system: Rattus norvegicus; assay: Antiinflammatory activity against carrageenan-induced paw edema rat model assessed as inhibition of hind paw swelling administered 1 hr before carrageenan challenge measured after 2 hrs by plethysmometer relative to control
[7] = system: Mus musculus; assay: Analgesic activity in Swiss albino mouse assessed as duration of thermal-stimulus induced tail flick latency at 10 mg/kg after 60 mins by tail immersion method (reference value: 3.01 +/- 0.04 seconds)
[8] = system: Rattus norvegicus; assay: Antiinflammatory activity against carrageenan-induced paw edema rat model assessed as inhibition of hind paw swelling at 10 mg/kg administered 1 hr before carrageenan challenge measured after 3 hrs by plethysmometer relative to control
[9] = system: Mus musculus; assay: Analgesic activity in Swiss albino mouse assessed as duration of thermal-stimulus induced tail flick latency at 10 mg/kg after 30 mins by tail immersion method (reference value: 2.13 +/- 0.03 seconds)
[10] = system: Rattus norvegicus; assay: Antiinflammatory activity against carrageenan-induced paw edema rat model assessed as inhibition of hind paw swelling at 10 mg/kg administered 1 hr before carrageenan challenge measured after 2 hrs by plethysmometer relative to control
[11] = system: Mus musculus; assay: Analgesic activity in Swiss albino mouse assessed as duration of thermal-stimulus induced tail flick latency at 10 mg/kg after 90 mins by tail immersion method (reference value: 3.87 +/- 0.10 seconds)
[12] = system: Rattus norvegicus; assay: Antiinflammatory activity against carrageenan-induced paw edema rat model assessed as inhibition of hind paw swelling at 10 mg/kg administered 1 hr before carrageenan challenge measured after 1 hr by plethysmometer relative to control

| Compound | Time [1] | Time [2] | inhibition (INH) [3] | Time [4] | inhibition (INH) [5] | inhibition (INH) [6] | Time [7] | inhibition in vivo at 10 mg/kg [8] | Time [9] | inhibition in vivo at 10 mg/kg [10] | Time [11] | inhibition in vivo at 10 mg/kg [12] |
| --- | --- | --- | --- | --- | --- | --- | --- | --- | --- | --- | --- | --- |
| COc1cc(/C=N/NC(=O)CN2C(=O)c3ccccc3C2=O)cc(OC)c1OC | 3.83 s | 4.04 s | 26.7% | 4.21 s | 49.4% | 40.5% |  |  |  |  |  |  |
| O=C(CN1C(=O)c2ccccc2C1=O)N/N=C/c1ccc([N+](=O)[O-])cc1 | 5.39 s | 6.45 s | 19.6% | 6.83 s | 54.6% | 43.4% |  |  |  |  |  |  |
| O=C(CN1C(=O)c2ccccc2C1=O)N/N=C/c1ccc(Cl)cc1 | 5.61 s | 7.13 s | 26.7% | 8.91 s | 58.6% | 47.8% |  |  |  |  |  |  |
| O=C(CN1C(=O)c2ccccc2C1=O)N/N=C/c1ccc(O)cc1 | 3.42 s | 3.83 s | 23.2% | 4.12 s | 50.6% | 43.4% |  |  |  |  |  |  |
| O=C(CN1C(=O)c2ccccc2C1=O)N/N=C/c1ccccc1[N+](=O)[O-] | 5.35 s | 6.29 s | 30.3% | 6.88 s | 57.3% | 49.2% |  |  |  |  |  |  |
| O=C([O-])Cc1ccccc1Nc1c(Cl)cccc1Cl.[Na+] [DICLOFENAC SODIUM] |  |  |  |  |  |  | 5.06 s | 68% | 3.06 s | 60.8% | 10.93 s | 39.8% |
| Cc1ccc(/C=N/NC(=O)CN2C(=O)c3ccccc3C2=O)cc1 | 3.32 s | 3.86 s | 17.8% | 4.5 s | 25.3% | 24.6% |  |  |  |  |  |  |
| COc1cccc(/C=N/NC(=O)CN2C(=O)c3ccccc3C2=O)c1 | 3.21 s | 3.94 s | 28.5% | 4.92 s | 61.4% | 49.2% |  |  |  |  |  |  |
| O=C(CN1C(=O)c2ccccc2C1=O)N/N=C/c1ccccc1 | 2.83 s | 3.22 s | 14.2% | 3.89 s | 17.3% | 15.9% |  |  |  |  |  |  |
| COc1cc(/C=N/NC(=O)CN2C(=O)c3ccccc3C2=O)ccc1O | 4.53 s | 6.22 s | 32.1% | 9.09 s | 64% | 53.6% |  |  |  |  |  |  |
